One data set has as its system M. tuberculosis. More on the design: method as in Chambers et al. [7] (imipenem), Kumar et al. [6] (biapenem). The note with it: acute M. tuberculosis infection model in mice; ref Chambers et al. [7] (imipenem), Kumar et al. [6] (biapenem); cited from earlier work.
Data set [1] deals with M. tuberculosis H37Rv. The data set can be described thus: Minimum inhibitory concentration (MIC) by micro broth dilution, read by visual inspection of the bacterial pellet after 14 d. The data set is classed as cell-based. The note with it: Mycobacterium tuberculosis, 336 h.
For data set [2], the system named is M. tuberculosis H37Rv. Kind of data set: Sub-acute mouse model of M. tuberculosis infection, lung CFU burden. The class given is in vivo, BALB/c mice. The note with it: for onset of activity in infected mice (reduction of lung burden at one week vs no-treatment group): 400 mg/kg bid sc + 75 mg/kg clavulanate, little or no reduction at one week; for efficacy in comparison (lung M. tuberculosis burden): 1 and 3 weeks.

Data set [3] can be described thus: Mouse plasma pharmacokinetics after a single 25 mg/kg sc dose (LC-MS, non-compartmental model). The note with it: for %T>MIC: female BALB/c mice, single 25 mg/kg sc, percentage of time above the MIC over 3 h; for AUC(0-t) / Cmax / half-life / concentration at 3 h: female, BALB/c, mouse, plasma, sc, 25 mg/kg.
For data set [4] the following is noted: female, BALB/c, mouse, in vivo, sc, 25 mg/kg.
The next data set is described as follows: in vivo. The note with it: female, BALB/c, mouse, sc, 25 mg/kg.
Setting [5] is: M. tuberculosis H37Rv, 7H9 broth without Tween-80, 14 d, drug alone without clavulanate, read-out: MIC.
Setting [6] is: carbapenems 400 mg/kg bid sc + 75 mg/kg clavulanate, rifampin 10 mg/kg once daily orally.

We go through nine compounds from article PMC8092647, “Assessment of carbapenems in a mouse model of Mycobacterium tuberculosis infection” (PLoS ONE, 2021).

Entries after “also recorded” stand apart in the source; their conditions may differ. Read-outs that look alike come from different tables or passages of the source.

For `C[C@@H](O)[C@H]1C(=O)N2C(C(=O)O)=C(SCCN=CN)C[C@H]12` [imipenem], in the data set with M. tuberculosis, the “onset of activity in infected mice” value is reported as “delayed activity”.

`C[C@@H](O)[C@H]1C(=O)N2C(C(=O)O)=C(S[C@@H]3CN[C@H](C(=O)N(C)C)C3)[C@H](C)[C@H]12` [Meropenem, reference compound]: the MIC in the data set on M. tuberculosis H37Rv [1] (setting [5]) was in the range of 4 to 8 µg/mL. For the same compound, the “onset of activity in infected mice (reduction of lung burden at one week vs no-treatment group)” value in the data set on M. tuberculosis H37Rv [2] is given as “delayed activity”. Besides, in data set [3], the “%T>MIC” value is less than 8.3%, the AUC(0-t) came to 613 ng·h/mL, the Cmax was found to be 1340 ng/mL and the half-life was 27.8 min.

In the data set with M. tuberculosis H37Rv [1] (H37RV), `CSC1=C(C(=O)[O-])N2C(=O)[C@H]([C@@H](C)O)[C@H]2[C@H]1C.[Na+]` [JSF-2204, Sodium (4R,5S,6S)-6-((R)-1-hydroxyethyl)-4-methyl-3-(methylthio)-7-oxo-1-azabicyclo[3.2.0]hept-2-ene-2-carboxylate] had a minimum inhibitory concentration (MIC) of 0.25 to 0.5 µg/mL. Besides, the “onset of activity in infected mice (reduction of lung burden at one week vs no-treatment group)” value with M. tuberculosis H37Rv [2] is on record as “delayed activity”. Further, the “efficacy in comparison (lung M. tuberculosis burden)” value with M. tuberculosis H37Rv [2] (setting [6]) is “efficacy equivalent to that of meropenem; also recorded: inferior to rifampin; also recorded: statistically indistinguishable efficacy; also recorded: statistically equivalent performance to meropenem”. In addition, in data set [3], the “%T>MIC” value is reported as 33–100%, the AUC(0-t) was 23000 ng·h/mL and the Cmax was found to be 63000 ng/mL.

Take `C[C@@H](O)[C@H]1C(=O)N2C(C(=O)[O-])=C(SCCc3ccccc3)[C@H](C)[C@H]12.[Na+]` [JSF-2417, Sodium (4R,5S,6S)-6-((R)-1-hydroxyethyl)-4-methyl-7-oxo-3-(phenethylthio)-1-azabicyclo[3.2.0]hept-2-ene-2-carboxylate]: the MIC in the data set on M. tuberculosis H37Rv [1] (H37RV) is 2 to 4 µg/mL. Besides, in the data set on M. tuberculosis H37Rv [2], the “onset of activity in infected mice (reduction of lung burden at one week vs no-treatment group)” value is reported as “delayed activity”. Also, the “efficacy in comparison (lung M. tuberculosis burden)” value with M. tuberculosis H37Rv [2] (setting [6]) is “inferior”. Further, in data set [3], the “%T>MIC” value is listed as 8.3–33%, the AUC(0-t) stood at 5740 ng·h/mL, the peak level (Cmax) was 5190 ng/mL and the concentration at 3 h was 262 ng/mL. In addition, in data set [3], the half-life was 38.8 min.

For `C[C@@H](O)[C@H]1C(=O)N2C(C(=O)O)=C(SCC(=O)OC(C)(C)C)[C@H](C)[C@H]12` [JSF-2196], in the data set with M. tuberculosis H37Rv [1] (setting [5]), the MIC is 2 to 4 µg/mL. Moreover, the “%T>MIC” value in data set [4] is 17–33%. In “in vivo”, this compound showed an AUC(0-t) of 9060 ng·h/mL, a Cmax of 20500 ng/mL and a half-life of 13.8 min.

Regarding `C[C@@H](O)[C@H]1C(=O)N2C(C(=O)O)=C(SCC(F)(F)F)[C@H](C)[C@H]12` [JSF-2415], in the data set on M. tuberculosis H37Rv [1] (setting [5]), the MIC was in the range of 4 to 8 µg/mL. The “%T>MIC” value in data set [4] is 17–33%. In “in vivo”, this compound had an AUC(0-t) of 12500 ng·h/mL, a Cmax of 34800 ng/mL and a half-life of 14.5 min.

As to `CO[C@H]1/C=C/O[C@@]2(C)Oc3c(C)c(O)c4c(O)c(c(/C=N/N5CCN(C)CC5)c(O)c4c3C2=O)NC(=O)/C(C)=C\C=C\[C@H](C)[C@H](O)[C@@H](C)[C@@H](O)[C@@H](C)[C@H](OC(C)=O)[C@@H]1C` [rifampin, reference compound], the “effect on lung bacterial burden after one week of dosing” value in the data set on M. tuberculosis H37Rv [2] (rifampin 10 mg/kg once daily orally, 1 week) is recorded as “bacteriostatic effect”. In the data set with M. tuberculosis H37Rv [2] (rifampin 10 mg/kg once daily orally, carbapenems 400 mg/kg bid sc + 75 mg/kg clavulanate, 3 weeks), the “effect on lung bacterial burden after 3 weeks of dosing” value was “bacteriostatic effect”.

Regarding `C[C@@H](O)[C@H]1C(=O)N2C(C(=O)[O-])=C(SC3Cn4cnc[n+]4C3)[C@H](C)[C@H]12` (stereo partly drawn) [Biapenem, reference compound], the minimum inhibitory concentration (MIC) in the data set on M. tuberculosis H37Rv [1] (setting [5]) was 2.5 to 5 µg/mL. The “onset of activity in infected mice” value with M. tuberculosis is given as “delayed activity”. Further, in data set [3], the “%T>MIC” value is listed as 33–100%, the area under the curve AUC(0-t) was found to be 63300 ng·h/mL, the Cmax was determined as 55600 ng/mL and the half-life was 17.3 min.

Turning to `C[C@@H](O)[C@H]1C(=O)N2C(C(=O)[O-])=C(SCCC(=O)N3CCOCC3)[C@H](C)[C@H]12.[Na+]` [JSF-2700, Sodium (4R,5S,6S)-6-((R)-1-hydroxyethyl)-4-methyl-3-((3-morpholino-3-oxopropyl)thio)-7-oxo-1-azabicyclo[3.2.0]hept-2-ene-2-carboxylate], the MIC against M. tuberculosis H37Rv [1] (H37RV) was in the range of 2 to 4 µg/mL. Besides, in data set [3], the “%T>MIC” value was 8.3–33%, the AUC(0-t) stood at 5930 ng·h/mL, the concentration peaked (Cmax) at 17400 ng/mL and the concentration at 3 h is 6 ng/mL. The same compound had a half-life in data set [3] of 15.5 min.

A word on the MIC: it is the smallest concentration in the dilution series that meets the test's criterion for growth inhibition. In general, AUC(0-t) refers to the area under the concentration-time curve up to a stated or last time point. In general, Cmax refers to the maximum level reached in the sampled fluid or tissue. A word on the half-life: it is the time needed for the level to fall by half in the phase considered.
